EC50 data for 13 compounds are collected here from patent US11286233B2, “Stilbene derivatives for the treatment of CNS and other disorders” (AMBIENT PHOTONICS, INC., priority 2017, dated 2022).

Experiment [1] concerns the target T1, Amylin 8-37 (Homo sapiens, UniProt P10997).
T1 construct: Amylin 8-37 peptide was solubilized in DMSO; purchased China Peptide
T1 sequence (P10997 41-70): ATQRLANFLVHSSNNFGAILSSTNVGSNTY
As to the kind of experiment: Fluorescence-based (bis-ANS) assay of Amylin disaggregation. In kind it is biochemical. The conditions noted are these: Amylin 8-37 15 μM, bis-ANS 15 μM; Tris-HCl pH7.4, 26° C.; aggregation 24 hours, test compounds 0.227-60 μM, read over 24 hour period; concentration reducing fluorescence by 50 percent. The method, then:
Human peptides Aβ1-42 and Amylin 8-37 were purchased from China Peptide and stored at −80° C. Zinc sulfate heptahydrate (ZnSO4.7H2O), BisANS (4,4′-Dianilino-1,1′-binaphthyl-5,5′-disulfonic acid dipotassium salt), Epigallocatechin-3-gallate (EGCG), 9-(Dicyanovinyl)julolidine (DCVJ) and Clioquinol (CQ) were purchased from Sigma Aldrich. Ethylenediaminetetraacetic acid (EDTA) was purchased from Alfa Aesar. 2-(dimethylamino)methyl-5,7-dichloro-8-hydroxyquinoline (AC-068), structurally similar to PBT-2 was synthesized by Warner Babcock Institute for Green Chemistry, LLC.
Amylin disaggregation was assessed using a Spectramax M5 multi-mode microplate reader (Molecular Devices) using untreated black with clear bottom 96 well plates (Costar #3631). The device was configured to maintain 26° C., measure an excitation of 390 nm, emission of 490 nm and cutoff 475 nm with the PMT+set at Medium, 6 flashes/read at 5-minute intervals with shaking 5 seconds before the first read and 3 seconds between reads.
Experiments were conducted at 26° C. in a Tris-HCl buffer (50 mM, pH7.4) containing NaCl (150 mM). Amylin 8-37 peptide was solubilized in DMSO to a concentration of 1.5 mM for 5 minutes then briefly centrifuged to remove any aggregates. The soluble amylin peptide (15 μM) was immediately mixed ±bis-ANS (15 μM) and the plate sealed to prevent evaporation. Aggregation was measured by an increase in fluorescence over 24 hours. Test compounds (0.227-60 μM in DMSO) were then added and the dose response was measured over a 24 hour period. EGCG was used as a positive control. Raw fluorescence was normalized to background fluorescence without Amylin and expressed as a percentage of that in control samples. All quantitative data was expressed as mean±SEM from at least 3 replicates. All statistical analysis was conducted with Prism 6 (GraphPad). Nonlinear regression was used to calculate the concentration at which fluorescence was reduced by 50 percent (EC50), as shown in Table 2.

The target of experiment [2] is T2, Aβ1-42:Zn (Homo sapiens, UniProt P05067).
T2 construct: Human peptides Aβ1-42 and Amylin 8-37 were purchased; purchased China Peptide
As to the kind of experiment: Fluorescence-based (bis-ANS) assay of Aβ1-42:Zn disaggregation. Type of experiment: biochemical. The conditions noted are these: Aβ1-42 15 μM, bis-ANS 15 μM, Zn 15 μM; Tris-HCl pH7.4, 26° C.; test compounds 0.227-60 μM added after plateau, read over 20 minutes; concentration reducing fluorescence by 50 percent. The method, then: Human peptides Aβ1-42 and Amylin 8-37 were purchased from China Peptide and stored at −80° C. […] The device was configured to maintain 26° C., measure an excitation of 390 nm, emission of 490 nm and cutoff 475 nm with the PMT+set at Medium, 6 flashes/read at 40 second intervals with shaking 5 seconds before the first read and 3 seconds between reads. Experiments were conducted at 26° C. in a Tris-HCl buffer (50 mM, pH7.4) containing NaCl (150 mM). Aβ1-42 was solubilized in DMSO to a concentration of 1.5 mM for 5 minutes then briefly centrifuged to remove any aggregates. The soluble Aβ1-42 (15 μM) was immediately mixed ±bis-ANS (15 μM) and allowed to equilibrate for 5 minutes. Aβ aggregation was induced with the addition of ±Zn (15 μM) in H2O. […] Test compounds (0.227-60 μM in DMSO) were then added and the dose response was measured over a 20-minute period. EDTA, known to chelate Zn, was used as a positive control. Raw fluorescence was normalized to background fluorescence without Aβ and expressed as a percentage of that in control samples without Zn. All quantitative data was expressed as mean±SEM from at least 3 replicates. All statistical analysis was conducted with Prism 6 (GraphPad).

By EC50 is commonly meant the concentration that produces a half-maximal response. Higher therefore signals a less potent agent.

T2 sequence (P05067 672-713): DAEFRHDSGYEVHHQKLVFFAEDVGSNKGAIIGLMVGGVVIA

`COc1cc(/C=C(\C#N)C(=O)O)c(OC)cc1/C=C/c1ccc(-n2c3ccc(C(C)(C)C)cc3c3cc(C(C)(C)C)ccc32)cc1` [PC-066, (E)-2-cyano-3-[4-[(E)-2-[4-(3,6-ditert-butylcarbazol-9-yl)phenyl]vinyl]-2,5-dimethoxy-phenyl]prop-2-enoic Acid] gave an EC50 in experiment [1] of 1190 nM.

Compound “Epigallocatechin-3-gallate [EGCG, reference compound]” had an EC50 in experiment [1] of 857 nM.

As for `N#CC(C#N)=Cc1cc2c3c(c1)CCCN3CCC2` [DCVJ, 9-(Dicyanovinyl)julolidine, reference compound], the concentration giving a half-maximal response (EC50) in experiment [2] was determined as 533 nM.

On to `O=C(O)CN(CCN(CC(=O)O)CC(=O)O)CC(=O)O` [EDTA, Ethylenediaminetetraacetic acid, reference compound], for which the EC50 in experiment [2] came to 46100 nM.

Compound `N#C/C(=C/c1ccc(/C=C/c2ccc(N(c3ccccc3)c3ccccc3)cc2)cc1OCCCCCCCCCC(=O)O)C(=O)O` [PC-192] registered an EC50 in experiment [2] of 2850 nM.

As to `CC(C)(C)c1ccc(N(c2ccc(/C=C/c3ccc4cc(C#N)c(=O)[nH]c4c3)cc2)c2ccc(C(C)(C)C)cc2)cc1` [PC-174, 7-[(E)-2-[4-(4-tert-butyl-N-(4-tert-butylphenyl)anilino)phenyl]vinyl]-2-oxo-1H-quinoline-3-carbonitrile], the results for the EC50 in experiment [2] and in experiment [1] were 49700 nM and 3740 nM, respectively.

Consider `COc1cc(/C=C/c2ccc(N(c3ccc(C(C)(C)C)cc3)c3ccc(C(C)(C)C)cc3)cc2)c(OC)cc1C=C(C#N)C(=O)O` (stereo in doubt) [PC-063, (Z)-3-[4-[(E)-2-[4-(4-tert-butyl-N-(4-tert-butylphenyl)anilino)phenyl]vinyl]-2,5-dimethoxy-phenyl]-2-cyano-prop-2-enoic Acid], for which the values for the EC50 in experiment [2] and in experiment [1] were 31000 nM and 1260 nM, respectively.

As to `N#C/C(=C/c1ccc(-c2ccc(N(c3ccccc3)c3ccccc3)cc2)o1)C(=O)O` [PC-081, (Z)-2-cyano-3-[5-[4-(N-phenylanilino)phenyl]-2-furyl]prop-2-enoic Acid], the EC50 in experiment [2] came to 338 nM; in experiment [1], 207 nM.

`N#C/C(=C/c1ccc(/C=C/c2ccc(N(c3ccccc3)c3ccccc3)cc2)cc1OCCCCCCCC(=O)O)C(=O)O` [PC-191] registered an EC50 in experiment [2] of 1610 nM.

`N#C/C(=C/c1ccc(/C=C/c2ccc(N(c3ccccc3)c3ccccc3)cc2)cc1OCC(=O)O)C(=O)O` [PC-190, (Z)-3-[2-(carboxymethoxy)-4-[(E)-2-[4-(N-phenylanilino)phenyl]vinyl]phenyl]-2-cyano-prop-2-enoic Acid] yielded an EC50 in experiment [2] of 649 nM.

Take `N#CC(=Cc1ccc(/C=C/c2ccc(N(c3ccccc3)c3ccccc3)cc2)cc1)C(=O)O` (stereo in doubt) [PC-064, (Z)-2-cyano-3-[4-[(E)-2-[4-(N-phenylanilino)phenyl]vinyl]phenyl]prop-2-enoic Acid]: the values for the EC50 in experiment [2] and in experiment [1] were 747 nM and 24 nM, respectively.

With `Oc1c(I)cc(Cl)c2cccnc12` [CQ, Clioquinol, reference compound], the figures for the EC50 in experiment [2] and in experiment [1] were 2690 nM and 4070 nM, respectively.

In experiment [2], `CN(C)Cc1ccc2c(Cl)cc(Cl)c(O)c2n1` [AC-068(PBT2), 2-(dimethylamino)methyl-5,7-dichloro-8-hydroxyquinoline, reference compound] gave an EC50 of 2210 nM.
